We go through 3 compounds from patent US20220177510A1, “DERIVATIVES OF GYLCERO-MANNO-HEPTOSE ADP FOR USE IN MODULATING IMMUNE RESPONSE” (priority 2019, published 2022).

The target in test [1] is T1, ALPK1 (Homo sapiens, UniProt Q96QP1).
T1 construct: endogenous in cells; host or cells: HEK293 (A1); HEK293 stably expressing an NF-kB-alkaline phosphatase reporter (A2)
Briefly: NF-kB promoter driven alkaline phosphatase reporter in HEK293 cells (pNPP assay). To be noted: HEK293-NFkB-AP reporter cells treated 7 hours. The test is classed as cell-based. How it is done: NF-kB activation was assayed using HEK293 cells stably expressing an NF-kB reporter construct comprising an NF-kB promoter driving expression of alkaline phosphatase (AP). In this system, activation of NF-kB promoter activity drives the expression of AP which is detected using a chromogenic substrate, para-nitrophenyl phosphate (pNPP).
To assess the ALPK1 agonist activity of test compounds, the HEK293 cells were seeded in 96-well plates and allowed to attach overnight. Cells were then exposed to graded concentrations of compounds A1, A2, A3, A4, A18, A26, A27, A28, and A30. Compound 28 was included as a reference. Following treatment, cell culture supernatants were collected and analyzed for alkaline phosphatase activity using the pNPP assay. The results are shown in FIGS. 7A-7B and Table 2B-C below. The EC50 for each compound was determined using GraphPad Prism.

The target of test [2] is T1, ALPK1. Briefly: IL-8 secretion by HEK293 cells (IL-8 ELISA) as indication of ALPK1 activation. The test is classed as cell-based. To be noted: HEK293 cells treated 4 hours, FIG. 6, Table 2A. How it is done: HEK293 cells were treated with H1b-ADP derivatives (A1, A2, A3, and A4) or with Compound 28 for 4 hours followed by analysis of IL-8 secretion using an IL-8 enzyme linked immunoassay (ELISA). IL-8 secretion is an indication of ALPK1 activation. The EC50 of each compound was determined using GraphPad Prism.

The subject of test [3] is eosinophils, dendritic cells, neutrophils. Put plainly: Porcine pancreas elastase (PPE) induced immune cells in bronchoalveolar lavage, flow cytometry. Format: in vivo, mouse. To be noted: 30 μg/dose PPE, BAL day 2. The procedure: Eight-week-old male C57BL/6 mice were grouped (N=8/group) and were intraperitoneally (I.P.) injected with compound 28 at 0, 4, or 20 nmol/dose on days −1, 0, and 1. In addition, mice were intratracheally (I.Tr.) administrated with 0 or 30 μg/dose of porcine pancreas elastase (PPE) dissolved in 50 μL saline on day 0. Mice were sacrificed on day 2 and the immune cells were collected by bronchoalveolar lavage (BAL). Cells were then subjected to fluorophore-conjugated antibody staining and analyzed by flow cytometry. Data were processed with a FlowJo […] (Treestar). Immune cells were gated as singlets>live cells>CD11c^highSiglecF^lowMHCII^high (dendritic cells), CD11c^lowCD11b^highLy-6G^high (neutrophils), and CD11c^lowCD11b^highLy-6G^lowSiglecF^high (eosinophils).
For orientation: A flow cytometer gives signals particle by particle.

In another test the test system is HBsAg, adw. Briefly: Immunization of mice with HBsAg, adw with or without compound; specific total IgG serum titers by ELISA. Format: in vivo, mouse. The procedure: Eight-week-old C57BL/6J mice (females) were intradermally (I.D.) immunized at day 0 with HBsAg, adw (1 mg/dose), or HBsAg, adw at 1 mg/dose combined with compound 28 (1 nmol/dose). Mice were boosted with a second immunization at day 14 and the sera collected at day 35. HBsAg, adw-specific total IgG serum titers (OD450) were determined by ELISA. Anti-HBsAg, adw IgG titers were more than 2× higher when HBsAg, adw was combined with 1 nmol/dose of compound 28 than when HBsAg, adw was injected alone (FIG. 3).
(ELISA stands for enzyme-linked immunosorbent assay.)

A further test has as its system HBV. Briefly: HBV-AAV mouse model: HBV DNA qPCR, serum HBsAg and HBeAg ELISA. The test is classed as in vivo. To be noted: 0.1 mg/kg intraperitoneal on days 28 and 31, serum at day 35, versus PBS control. How it is done:
Administration of Compound 28 (0.1 mg/kg, twice weekly “BIW”) led to downregulation of HBV DNA expression and a decrease in serum levels of HBsAg, and HBeAg in the HBV-AAV mouse model. At day 1, male C57BL/6 mice were intravenously injected with AAV8-1.3HBV (1×10^11 v/g). After days 28 and 31, each mouse was then intraperitoneally injected with 0.1 mg/kg compound 28 or PBS control. At day 35, mouse serum was collected for HBV DNA qPCR analysis, HBsAg and HBeAg serum analysis by ELISA.
In general terms: Real-time PCR tracks product formation cycle by cycle.

The target of test [4] is T2, ALPK1 (Mus musculus, UniProt Q9CXB8).
T2 construct: C57/B6 mice (n=3 mice/group) were injected subcutaneously; endogenous in cells; host or cells: C57/B6 mice, whole animal
T2 sequence (Q9CXB8 1-1231): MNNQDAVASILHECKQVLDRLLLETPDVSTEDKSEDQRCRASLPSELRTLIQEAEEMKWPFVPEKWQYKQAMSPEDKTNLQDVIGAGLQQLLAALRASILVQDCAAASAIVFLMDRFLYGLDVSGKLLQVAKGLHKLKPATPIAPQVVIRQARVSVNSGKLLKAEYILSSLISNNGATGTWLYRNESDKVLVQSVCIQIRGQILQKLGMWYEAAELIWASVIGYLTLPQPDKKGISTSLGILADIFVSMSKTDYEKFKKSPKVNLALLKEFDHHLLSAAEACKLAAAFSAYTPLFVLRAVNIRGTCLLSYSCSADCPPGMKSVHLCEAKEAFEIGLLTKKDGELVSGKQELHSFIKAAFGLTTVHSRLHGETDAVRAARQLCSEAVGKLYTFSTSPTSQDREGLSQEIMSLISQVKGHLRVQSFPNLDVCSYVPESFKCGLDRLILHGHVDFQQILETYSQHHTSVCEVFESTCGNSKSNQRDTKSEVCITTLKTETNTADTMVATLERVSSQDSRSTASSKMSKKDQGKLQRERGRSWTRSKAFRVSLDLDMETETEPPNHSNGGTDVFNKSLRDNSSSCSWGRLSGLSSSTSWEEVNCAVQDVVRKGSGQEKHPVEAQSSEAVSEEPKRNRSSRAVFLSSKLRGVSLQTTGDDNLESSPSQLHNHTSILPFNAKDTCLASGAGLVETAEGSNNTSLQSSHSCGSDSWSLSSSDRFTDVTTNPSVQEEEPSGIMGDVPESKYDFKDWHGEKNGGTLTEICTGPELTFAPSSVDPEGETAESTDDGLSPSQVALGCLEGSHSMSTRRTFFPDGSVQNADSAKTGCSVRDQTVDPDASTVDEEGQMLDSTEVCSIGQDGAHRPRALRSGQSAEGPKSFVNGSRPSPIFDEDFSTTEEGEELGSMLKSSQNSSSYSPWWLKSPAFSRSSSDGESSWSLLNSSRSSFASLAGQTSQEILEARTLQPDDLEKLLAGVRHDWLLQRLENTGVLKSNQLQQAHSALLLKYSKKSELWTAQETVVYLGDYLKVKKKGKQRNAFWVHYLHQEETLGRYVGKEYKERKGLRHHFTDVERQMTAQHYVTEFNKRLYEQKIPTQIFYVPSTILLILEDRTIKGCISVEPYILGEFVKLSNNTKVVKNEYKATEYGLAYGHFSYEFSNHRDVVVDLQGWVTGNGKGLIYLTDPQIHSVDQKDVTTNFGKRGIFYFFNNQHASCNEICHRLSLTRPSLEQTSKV
Put plainly: Serum RANTES (CCL5) levels after subcutaneous injection as measure of ALPK1 activation in vivo. Conditions: 10 nmole subcutaneous, serum at 24 hours or 48 hours. The procedure:
The ability of Compounds 15 and 28 to stimulate ALPK1 activation in vivo was tested by monitoring serum levels of the chemokine RANTES (CCL5), which is elevated upon activation of ALPK1. Briefly, C57/B6 mice (n=3 mice/group) were injected subcutaneously with PBS (negative control) or 10 nmole of Compound 15 or Compound 28. Serum was collected at 24 hours or 48 hours post injection.

[5] abbreviates: 4 nmol/dose intraperitoneal days -1, 0, 1.
[6] abbreviates: 4 nmol/dose intraperitoneal days -1, 0, 1, listed as compound 28.
Where [7] appears, read: 20 nmol/dose intraperitoneal days -1, 0, 1.
[8] abbreviates: 20 nmol/dose intraperitoneal days -1, 0, 1, listed as compound 28.

Entries after “also recorded” stand apart in the source; their conditions may differ.

T1 sequence (Q96QP1 whole entry): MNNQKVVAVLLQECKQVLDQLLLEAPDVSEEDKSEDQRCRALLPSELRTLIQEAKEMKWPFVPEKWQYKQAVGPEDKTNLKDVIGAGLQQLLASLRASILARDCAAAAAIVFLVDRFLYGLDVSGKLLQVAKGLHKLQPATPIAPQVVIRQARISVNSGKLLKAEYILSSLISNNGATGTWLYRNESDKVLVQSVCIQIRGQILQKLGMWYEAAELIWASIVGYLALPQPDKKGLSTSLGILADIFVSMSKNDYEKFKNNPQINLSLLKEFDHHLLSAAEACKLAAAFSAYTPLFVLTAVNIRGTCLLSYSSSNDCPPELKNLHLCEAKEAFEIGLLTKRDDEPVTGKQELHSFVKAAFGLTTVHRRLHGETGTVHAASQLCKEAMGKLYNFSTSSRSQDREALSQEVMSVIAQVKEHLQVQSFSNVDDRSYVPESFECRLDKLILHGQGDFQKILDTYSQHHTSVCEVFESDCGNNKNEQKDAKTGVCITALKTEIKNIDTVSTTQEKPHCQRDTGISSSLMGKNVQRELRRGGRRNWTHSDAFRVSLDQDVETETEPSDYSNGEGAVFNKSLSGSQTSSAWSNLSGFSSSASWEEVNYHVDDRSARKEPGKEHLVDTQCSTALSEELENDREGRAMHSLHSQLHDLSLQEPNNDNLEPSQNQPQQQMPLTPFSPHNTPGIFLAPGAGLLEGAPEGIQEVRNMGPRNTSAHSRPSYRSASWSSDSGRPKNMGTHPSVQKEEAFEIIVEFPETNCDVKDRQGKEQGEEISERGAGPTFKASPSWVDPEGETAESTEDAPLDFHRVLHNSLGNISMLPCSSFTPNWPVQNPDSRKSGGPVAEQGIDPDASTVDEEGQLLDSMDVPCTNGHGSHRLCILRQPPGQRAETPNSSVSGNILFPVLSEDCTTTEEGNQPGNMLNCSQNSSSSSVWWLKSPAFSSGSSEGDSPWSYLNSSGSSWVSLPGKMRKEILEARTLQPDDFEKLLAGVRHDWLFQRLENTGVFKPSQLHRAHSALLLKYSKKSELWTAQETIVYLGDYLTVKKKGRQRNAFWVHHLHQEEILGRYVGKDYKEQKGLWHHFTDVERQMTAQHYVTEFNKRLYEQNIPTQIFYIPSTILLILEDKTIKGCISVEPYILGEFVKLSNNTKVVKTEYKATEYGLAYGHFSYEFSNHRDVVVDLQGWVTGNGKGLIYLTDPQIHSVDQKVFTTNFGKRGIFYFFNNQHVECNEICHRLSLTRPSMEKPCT

With `CCCCCCCCCCCC(=O)OC[C@H](F)C1O[C@@H](OP(=O)(O)OP(O)(=S)OC[C@H]2O[C@@H](n3cnc4c(N)ncnc43)C(O)C2O)C(OC(C)=O)C(OC(C)=O)[C@@H]1OC(C)=O` (stereo in doubt) [Compound A2, 2S,3S,4S,5S,6S)-2-(((((((2R,3S,4R,5R)-5-(6-amino-9H-purin-9-yl)-3,4-dihydroxytetrahydrofuran-2-yl)methoxy)(hydroxy)phosphorothioyl)oxy)(hydroxy)phosphoryl)oxy)-6-((S)-2-(dodecanoyloxy)-1-fluoroethyl)tetrahydro-2H-pyran-3,4,5-triyl triacetate], the 50% effective concentration (EC50) (commonly the concentration at which the effect is half-maximal) turned out to be 11.9 nM at ALPK1 [1] (FIG. 7A, Table 2B) and 7.1 nM on ALPK1 [2].

For `CC(=O)OC[C@H](F)C1O[C@@H](OP(=O)(O)OP(O)(=S)OC[C@H]2O[C@@H](n3cnc4c(N)ncnc43)C(O)C2O)C(OC(C)=O)C(OC(C)=O)[C@@H]1OC(C)=O` (stereo partly shown) [Compound 28], the “production of dendritic cells after PPE administration” value in test [3] (setting [5]) is given as “decrease”; in test [3] (setting [6]), “significantly suppressed”; in test [3] (setting [7]) it was “decrease”; in test [3] (setting [8]) it was “significantly suppressed”. Besides, the “production of eosinophils after PPE administration” value in test [3] (setting [5]) is “decrease”; in test [3] (setting [6]) it was “significantly suppressed”; in test [3] (setting [7]), “decrease”; in test [3] (setting [8]), “significantly suppressed”. Also, the “production of neutrophils after PPE administration” value in test [3] (setting [5]) is given as “decrease”; in test [3] (setting [6]), “only at the 20 nmol/dose level”; in test [3] (setting [7]) it was “decrease”; in test [3] (setting [8]), “suppressed”. Besides, the EC50 was 45 nM at ALPK1 [1] (FIG. 7A, Table 2B); 67 nM at ALPK1 [1] (FIG. 7B, Table 2C); 45 nM at ALPK1 [2]. The “IgG response against HBsAg, adw (in words)” value in the test on HBsAg, adw (1 nmol with HBsAg, adw versus HBsAg, adw alone) was “increased IgG response”. Also, the “Anti-HBsAg, adw IgG titers, HBsAg, adw combined with compound relative to HBsAg, adw alone” value in the test on HBsAg, adw (1 nmol/dose intradermal, days 0 and 14, sera day 35) is “more than 2 ×”. Moreover, the “HBV DNA expression” value in the test with HBV is “marked decrease; also recorded: down-regulation”. The “serum levels of HBeAg” value with HBV is on record as “marked decrease; also recorded: lower levels”. In addition, the “serum levels of HBsAg” value in the test on HBV is on record as “marked decrease; also recorded: lower levels”. Further, the “duration of immune activation (serum RANTES), compared to Compound 15” value at ALPK1 [4] is on record as “longer duration of immune activation”.

As to `CCCCCCCCC(=O)OC[C@H](F)C1O[C@@H](OP(=O)(O)OP(O)(=S)OC[C@H]2O[C@@H](n3cnc4c(N)ncnc43)C(O)C2O)C(OC(C)=O)C(OC(C)=O)[C@@H]1OC(C)=O` (stereo partly drawn) [Compound A4, (2S,3S,4S,5S,6S)-2-(((((((2R,3S,4R,5R)-5-(6-amino-9H-purin-9-yl)-3,4-dihydroxytetrahydrofuran-2-yl)methoxy)(hydroxy)phosphorothioyl)oxy)(hydroxy)phosphoryl)oxy)-6-((S)-1-fluoro-2-(nonanoyloxy)ethyl)tetrahydro-2H-pyran-3,4,5-triyl triacetate], the EC50 was found to be 19.1 nM on ALPK1 [1] (FIG. 7A, Table 2B) and 19.2 nM on ALPK1 [2].
